Where only a bound is given, the exact number is not on record here.

Assay [1] has as its target IDH1-R132H recombinant protein (Homo sapiens (Human), UniProt O75874, R132H). Nature of the assay: IDH1-R132H enzymatic assay (inhibition of NADPH consumption, diaphorase/resazurin readout). In kind it is biochemical. The settings on record: read-out: Enzyme IDH1 R132H IC50 (Range). Here is the method: (§1) Assays were performed in a 384-well black plate. An aliquot of 250 nL of compound was incubated with 10 μL of 30 nM IDH1-R132H or 10 nM IDH1-R132C recombinant protein in assay buffer (50 mM Tris pH=7.5, 150 mM NaCl, 5 mM MgCl2, 0.1% (w/v) Bovine Serum Albumin, and 0.01% Triton X-100) in each well at 25° C. for 15 minutes. After the plate was centrifuged briefly, an aliquot of 10 μL of 2 mM α-ketoglutarate and 20 μM NADPH solution prepared in assay buffer was then added to each well and the reaction was maintained at 25° C. for 45 minutes. An aliquot of 10 μL of diaphorase solution (0.15 U/mL diaphorase and 30 µM Resazurin in assay buffer) was added to each well. The plate was maintained at 25° C. for 15 minutes and then read on a plate reader with excitation and emission wavelengths at 535 nm and 590 nm, respectively. The IC50 of a given compound was calculated by fitting the dose response curve of inhibition of NADPH consumption at a given concentration with the four parameter logistic equation.
In general terms: Alamar Blue is a resazurin reagent that responds to reducing activity.

Assay [2] concerns the target IDH1-R132C recombinant protein (Homo sapiens (Human), UniProt O75874, R132C). In words: IDH1-R132C enzymatic assay (inhibition of NADPH consumption, diaphorase/resazurin readout). The class given is biochemical. The following applies: read-out: Enzyme IDH1 R132C IC50 (Range). Here is the method: as §1

Chain of IDH1-R132H recombinant protein (O75874 whole entry R132H): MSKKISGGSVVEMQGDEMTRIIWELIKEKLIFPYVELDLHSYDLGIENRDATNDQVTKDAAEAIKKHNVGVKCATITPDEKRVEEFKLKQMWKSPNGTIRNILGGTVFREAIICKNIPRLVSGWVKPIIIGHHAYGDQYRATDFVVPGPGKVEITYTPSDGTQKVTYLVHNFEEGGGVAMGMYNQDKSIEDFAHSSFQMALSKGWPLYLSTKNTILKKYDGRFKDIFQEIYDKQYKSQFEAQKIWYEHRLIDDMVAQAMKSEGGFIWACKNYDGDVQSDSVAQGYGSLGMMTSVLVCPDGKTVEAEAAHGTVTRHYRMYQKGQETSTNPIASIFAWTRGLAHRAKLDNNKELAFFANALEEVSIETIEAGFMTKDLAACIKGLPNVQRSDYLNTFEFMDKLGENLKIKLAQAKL
Chain of IDH1-R132C recombinant protein (O75874 whole entry R132C): as the sequence (O75874 whole entry R132H) above, with H132C counted along it

Take `COc1nc(N[C@@H](C)c2cc3cc(Cl)c(OC(C)C)cc3[nH]c2=O)ncc1C#N` [Compound I-175, (S)-2-((1-(6-chloro-7-isopropoxy-2-oxo-1,2-dihydroquinolin-3-yl)ethyl)amino)-4-methoxypyrimidine-5-carbonitrile]: the half-maximal inhibitory concentration (IC50) in assay [1] and in assay [2] was under 0.1 µM each time.
As to `COc1nc(N[C@@H](C)c2cc3ncccc3[nH]c2=O)ncc1C#N` [Compound I-177, (S)—4-methoxy-2-((1-(2-oxo-1,2-dihydro-1,5-naphthyridin-3-yl)ethyl)amino)pyrimidine-5-carbonitrile], the IC50 (usually the concentration needed to halve the response being measured) in assay [1] was 1 to 10 µM; in assay [2], over 10 µM.
For the compound `CC(C)CS(=O)(=O)Cc1ccnc(N[C@@H](C)c2cc3cc(Cl)ccc3[nH]c2=O)n1` [Compound I-121, (S)-6-Chloro-3-(1-(4-(isobutylsulfonylmethyl)pyrimidin-2-ylamino)ethyl)quinolin-2(1H)-one], the half-inhibitory concentration (IC50) in assay [1] and in assay [2] was 0.1 to 1 µM throughout.
On to `C[C@H](Nc1nccc(-c2c[nH]nc2C(F)(F)F)n1)c1cc2cc(Cl)ccc2[nH]c1=O` [Compound I-86], for which the IC50 is 1 to 10 µM in assay [1] and over 10 µM in assay [2].
In the same order, the values of `COc1nc(NC2(c3cc4cc(Cl)ccc4[nH]c3=O)CC2)ncc1C#N` [Compound I-169, 2-((1-(6-Chloro-2-oxo-1,2-dihydroquinolin-3-yl)cyclopropyl)amino)-4-methoxypyrimidine-5-carbonitrile] are 0.1 to 1 µM and 1 to 10 µM.
For `C[C@H](Nc1nccc(N(CC2CC2)S(C)(=O)=O)n1)c1cc2cc(Cl)ccc2[nH]c1=O` [Compound I-2, (S)—N-(2-((1-(6-Chloro-2-oxo-1,2-dihydroquinolin-3-yl)ethyl)amino)pyrimidin-4-yl)-N-(cyclopropylmethyl)methanesulfonamide] the same measures were under 0.1 µM and under 0.1 µM.
In the case of `CC(C)CN(C(=O)C1CC1)c1ccnc(N[C@@H](C)c2cc3cc(Cl)ccc3[nH]c2=O)n1` [Compound I-35], the IC50 in assay [1] lay in the range of 0.1 to 1 µM; in assay [2], 1 to 10 µM.
For `C[C@H](Nc1nccc(N(CCC2CCOCC2)S(C)(=O)=O)n1)c1cc2cc(Cl)ccc2[nH]c1=O` [Compound I-16] the same measures were 0.1 to 1 µM and 1 to 10 µM.
On to `C[C@H](Nc1nccc(N2CCCC2=O)n1)c1cc2cc(Cl)ccc2[nH]c1=O` [Compound I-138], for which the IC50 was under 0.1 µM in assay [1] and 0.1 to 1 µM in assay [2].
For `C[C@H](Nc1nccc([S+](C)[O-])n1)c1cc2cc(Cl)ccc2[nH]c1=O` (stereo partly shown) [Compound I-111] the same measures were under 0.1 µM and 0.1 to 1 µM.
In the same order, the values of `COc1nc(N[C@H](C)c2cc3cc(Cl)ccc3[nH]c2=O)ncc1C#N` [Compound I-174] are 1 to 10 µM and 1 to 10 µM.
In the same order, the values of `CC(C)N(c1ccnc(N[C@@H](C)c2cc3cc(Cl)ccc3[nH]c2=O)n1)S(=O)(=O)CC1CC1` [Compound I-11, (S)—N-(2-((1-(6-Chloro-2-oxo-1,2-dihydroquinolin-3-yl)ethyl)amino)pyrimidin-4-yl)-1-cyclopropyl-N-isopropylmethanesulfonamide] are under 0.1 µM and under 0.1 µM.
Consider `CC(Nc1nccc(N2CCOC2=O)n1)c1cc2cc(Cl)ccc2[nH]c1=O` (stereo not shown) [Compound I-48], for which the values for the 50% inhibitory concentration (IC50) in assay [1] and in assay [2] were under 0.1 µM and 0.1 to 1 µM, respectively.
As to `CC(C)N(c1ccnc(N[C@@H](C)c2cc3cc(Cl)ccc3[nH]c2=O)n1)S(=O)(=O)c1ccc2c(c1)oc(=O)n2C` [Compound I-21], the 50% inhibitory concentration (IC50) in assay [1] fell in the range of 0.1 to 1 µM; in assay [2] it was 1 to 10 µM.
In the same order, the values of `COc1ccccc1-c1ccnc(N[C@@H](C)c2cc3cc(Cl)ccc3[nH]c2=O)n1` [Compound I-102] are 1 to 10 µM and 1 to 10 µM.
For `C[C@H](Nc1nccc(N(C2CCCOC2)S(C)(=O)=O)n1)c1cc2cc(Cl)ccc2[nH]c1=O` (stereo partly drawn) [Compound I-3, N-(2-(((S)-1-(6-chloro-2-oxo-1,2-dihydroquinolin-3-yl)ethyl)amino)pyrimidin-4-yl)-N-(tetrahydro-2H-pyran-3-yl)methanesulfonamide] the same measures were 0.1 to 1 µM and 0.1 to 1 µM.
With `COc1nc(N[C@@H](C)c2cc3cc(Cl)c(C4CC4)cc3[nH]c2=O)ncc1C#N` [Compound I-176, (S)-2-((1-(6-chloro-7-cyclopropyl-2-oxo-1,2-dihydroquinolin-3-yl)ethyl)amino)-4-methoxypyrimidine-5-carbonitrile], the values for the concentration for half-maximal inhibition (IC50) in assay [1] and in assay [2] were under 0.1 µM and 0.1 to 1 µM, respectively.
In the same order, the values of `COc1nc(NC(C)c2cc3cc(Cl)c(OCc4ccccn4)cc3[nH]c2=O)ncc1C#N` (stereo not shown) [Compound I-150] are under 0.1 µM and under 0.1 µM.
In the same order, the values of `COc1cc2[nH]c(=O)c([C@@H](C)Nc3ncc(C#N)c(OC)n3)cc2cc1Cl` [Compound I-144, (R)-2-((1-(6-Chloro-7-methoxy-2-oxo-1,2-dihydroquinolin-3-yl)ethyl)amino)-4-methoxypyrimidine-5-carbonitrile] are 0.1 to 1 µM and 1 to 10 µM.
For `CC(C)NC(=O)c1ccnc(N[C@@H](C)c2cc3cc(Cl)ccc3[nH]c2=O)n1` [Compound I-117] the same measures were 0.1 to 1 µM and 1 to 10 µM.
`COc1nc(N[C@H](C)c2cc3cc(Cl)c(F)cc3[nH]c2=O)ncc1C#N` [Compound I-141, (R)-2-((1-(6-chloro-7-fluoro-2-oxo-1,2-dihydroquinolin-3-yl)ethyl)amino)-4-methoxypyrimidine-5-carbonitrile]: the IC50 in assay [1] and in assay [2] was over 10 µM throughout.
Take `C[C@H](Nc1ncc(C#N)c(=O)[nH]1)c1cc2cc(Cl)ccc2[nH]c1=O` [Compound I-178, (S)-2-((1-(6-chloro-2-oxo-1,2-dihydroquinolin-3-yl)ethyl)amino)-6-oxo-1,6-dihydropyrimidine-5-carbonitrile]: the IC50 is under 0.1 µM in assay [1] and 1 to 10 µM in assay [2].
In the same order, the values of `CC(c1ccnc(N[C@@H](C)c2cc3cc(Cl)ccc3[nH]c2=O)n1)S(C)(=O)=O` (stereo partly drawn) [Compound I-135, 6-Chloro-3-((1S)-1-((4-(1-(methylsulfonyl)ethyl)pyrimidin-2-yl)amino)ethyl) quinolin-2(1H)-one] are 1 to 10 µM and over 10 µM.
Turning to `CC(C)[C@H]1COC(=O)N1c1ccnc(NCc2cc3cc(Cl)ccc3[nH]c2=O)n1` [Compound I-46, (S)-3-(2-(((6-Chloro-2-oxo-1,2-dihydroquinolin-3-yl)methyl)amino)pyrimidin-4-yl)-4-isopropyloxazolidin-2-one], the IC50 in assay [1] and in assay [2] was under 0.1 µM each time.
On to `CC(C)N(c1ccnc(NCc2cc3ccc(F)cc3[nH]c2=O)n1)S(C)(=O)=O` [Compound I-165], for which, in assay [1], the IC50 lay in the range of 1 to 10 µM.
Same read-out and setting: to `CC(C)CN(c1ccnc(N[C@@H](C)c2cc3cc(Cl)ccc3[nH]c2=O)n1)c1ncco1` [Compound I-128] belongs 0.1 to 1 µM; to `C[C@H](Nc1nccc(N(CC(F)(F)F)S(C)(=O)=O)n1)c1cc2cc(Cl)ccc2[nH]c1=O` [Compound I-13], under 0.1 µM.
Same read-out and setting: then `C[C@H](Nc1nccc(NC2CC2)n1)c1cc2cc(Cl)ccc2[nH]c1=O` [Compound I-9, (S)-6-Chloro-3-(1-((4-(cyclopropylamino)pyrimidin-2-yl)amino)ethyl)quinolin-2(1H)-one], with 1 to 10 µM; and `CC(C)CS(=O)(=O)Nc1ccnc(N[C@@H](C)c2cc3cc(Cl)ccc3[nH]c2=O)n1` [Compound I-18], with 1 to 10 µM; and `Cc1nn(C)cc1-c1ccnc(N[C@@H](C)c2cc3cc(Cl)ccc3[nH]c2=O)n1` [Compound I-77], with 1 to 10 µM.
Regarding `Cc1nc(N[C@@H](C)c2cc3cc(Cl)ccc3[nH]c2=O)ncc1Br` [Compound I-103], the IC50 in assay [1] was in the range of 0.1 to 1 µM.
Still for that read-out and setting: then `Cc1ccc2[nH]c(=O)c(CNc3nccc(N(C(C)C)S(C)(=O)=O)n3)cc2c1` [Compound I-166], with 1 to 10 µM; and `CC(C)CSc1ccnc(N[C@@H](C)c2cc3cc(Cl)ccc3[nH]c2=O)n1` [Compound I-107], with 1 to 10 µM.
Still for that read-out and setting: then `Cc1ncn(-c2ccnc(N[C@@H](C)c3cc4cc(Cl)ccc4[nH]c3=O)n2)c1C` [Compound I-53, (S)-6-Chloro-3-(1-((4-(4,5-dimethyl-1H-imidazol-1-yl)pyrimidin-2-yl)amino)ethyl)quinolin-2(1H)-one], with under 0.1 µM.
For the compound `C[C@H](Nc1nccc(NS(C)(=O)=O)n1)c1cc2cc(Cl)ccc2[nH]c1=O` [Compound I-17], the IC50 in assay [1] is over 10 µM.
The same measure, in the same setting: to `C[C@H](Nc1nccc(Nc2ncco2)n1)c1cc2cc(Cl)ccc2[nH]c1=O` [Compound I-127, (S)-6-Chloro-3-(1-((4-(oxazol-2-ylamino)pyrimidin-2-yl)amino)ethyl)quinolin-2(1H)-one] belongs 0.1 to 1 µM; to `Cc1nc(C)c(-c2ccnc(N[C@@H](C)c3cc4cc(Cl)ccc4[nH]c3=O)n2)s1` [Compound I-78], 1 to 10 µM; to `C[C@@H](Nc1nccc(N2CCCOC2=O)n1)c1cc2cc(Cl)ccc2[nH]c1=O` [Compound I-140], over 10 µM.
Still for that read-out and setting: then `C[C@H](Nc1nccc(C2CCCS2(=O)=O)n1)c1cc2cc(Cl)ccc2[nH]c1=O` (stereo partly shown) [Compound I-120], with 0.1 to 1 µM.
Same read-out and setting: to `CNC(=O)Cc1ccnc(N[C@@H](C)c2cc3cc(Cl)ccc3[nH]c2=O)n1` [Compound I-131] belongs 0.1 to 1 µM.
